From the NIST ThermoML archive (doi:10.1016/j.fluid.2009.08.023)
Several values for one entry are separate records, joined by “and”; a condition that tells them apart may be missing. Identical values can stand only once.

Details: Liquid, Closed cell (Static) method

FC(C(F)(F)F)C(F)(F)F [1,1,1,2,3,3,3-heptafluoropropane]
Details | vapor or sublimation pressure [kPa]
233.8 K | 33.41
235.53 K | 36.68
237.5 K | 40.7
237.93 K | 41.62
239.21 K | 44.45
241.12 K | 48.94
243.06 K | 53.89
245.07 K | 59.45
247.09 K | 65.47
247.15 K | 65.66
249.1 K | 71.95
251.21 K | 79.25
253.11 K | 86.34
255.19 K | 94.66
257.15 K | 103.11
257.2 K | 103.29
258.2 K | 107.8
259.06 K | 111.83
261.03 K | 121.45
262.97 K | 131.55
265.23 K | 144.08
267.13 K | 155.39
269.15 K | 168.13
271.12 K | 181.25
271.9 K | 186.72
273.22 K | 196.14
275.23 K | 211.33
277.22 K | 227.17
277.55 K | 229.88
279.11 K | 243.04
281.21 K | 261.71
283.19 K | 280.28
283.23 K | 280.58
285.14 K | 299.44
287.16 K | 320.43
287.95 K | 329.02
289.06 K | 341.15
291.11 K | 364.72
292.83 K | 385.4
293.23 K | 390.27
294.98 K | 412.44
297.07 K | 440.12
297.75 K | 449.31
299.11 K | 468.35
301.1 K | 497.27
303.22 K | 529.51
306.1 K | 575.88
308.04 K | 608.64
318.59 K | 813.28
320.55 K | 856.24
321.06 K | 867.63
328.3 K | 1043.7
331.45 K | 1127.8
338.37 K | 1331.1
341.94 K | 1446
348.87 K | 1690.7
352.27 K | 1822.1
359.69 K | 2136.3
360.92 K | 2192.1
371.37 K | 2720.8
371.43 K | 2723.8

FC(F)(F)CC(F)(F)F [1,1,1,3,3,3-hexafluoropropane]
Details | vapor or sublimation pressure
239.02 K | 20.71 kPa
240.1 K | 21.95 kPa
242.86 K | 25.66 kPa
243.17 K | 26.02 kPa
243.26 K | 26.19 kPa
244.9 K | 28.6 kPa
247.01 K | 31.96 kPa
249.11 K | 35.66 kPa
249.3 K | 35.98 kPa
251.19 K | 39.62 kPa
253.11 K | 43.66 kPa
253.18 K | 43.74 kPa
253.29 K | 43.96 kPa
253.33 K | 44.11 kPa
255.21 K | 48.33 kPa
257.22 K | 53.21 kPa
259.25 K | 58.54 kPa
261.09 K | 63.74 kPa
262.94 K | 69.34 kPa
263.1 K | 69.79 kPa
263.2 K | 70.19 kPa
264.08 K | 72.93 kPa
264.88 K | 75.59 kPa
266.95 K | 82.8 kPa
269.03 K | 90.55 kPa
271.1 K | 98.85 kPa
273.22 K | 107.93 kPa
273.31 K | 108.24 kPa
273.32 K | 108.34 kPa
273.4 K | 108.71 kPa
275.23 K | 117.09 kPa
277.32 K | 127.3 kPa
279.29 K | 137.56 kPa
280.96 K | 146.78 kPa
283.24 K | 160.12 kPa
283.27 K | 160.26 kPa
285.26 K | 172.59 kPa
287.23 K | 185.57 kPa
289.23 K | 199.5 kPa
291.2 K | 214 kPa
293.16 K | 229.27 kPa
293.29 K | 230.28 kPa
294.32 K | 238.65 kPa
295.26 K | 246.45 kPa
297.25 K | 263.72 kPa
299.35 K | 282.86 kPa
301.4 K | 302.67 kPa
303.06 K | 319.32 kPa
303.24 K | 321.23 kPa
303.3 K | 321.84 kPa
303.55 K | 324.31 kPa
305.21 K | 342.11 kPa
306.13 K | 352.04 kPa
307.21 K | 364.17 kPa
307.88 K | 372.01 kPa
308.18 K | 375.53 kPa
308.2 K | 375.7 kPa
309.52 K | 391.11 kPa
311.21 K | 412.03 kPa
311.29 K | 412.84 kPa
312.22 K | 424.67 kPa
313.16 K | 436.99 kPa
313.29 K | 438.48 kPa
313.85 K | 445.61 kPa
315.31 K | 465.57 kPa
317.16 K | 491.51 kPa
319.27 K | 522.37 kPa
320.93 K | 547.63 kPa
321.21 K | 552.1 kPa
323.44 K | 587.43 kPa
325.87 K | 628.19 kPa and 628.25 kPa
327.21 K | 651.86 kPa
328.24 K | 669.95 kPa
329.19 K | 687.47 kPa
330.27 K | 707.58 kPa
330.43 K | 710.54 kPa
330.87 K | 718.92 kPa
332.2 K | 744.56 kPa
332.59 K | 752.25 kPa
335.42 K | 809.53 kPa
337.41 K | 851.82 kPa
337.88 K | 862 kPa
339.87 K | 906.21 kPa
341.92 K | 953.67 kPa
343.98 K | 1002.9 kPa
345.61 K | 1043.5 kPa
346.25 K | 1059.7 kPa
348.23 K | 1111.2 kPa
350.37 K | 1168.7 kPa
352.05 K | 1215.7 kPa
352.45 K | 1226.9 kPa
353.22 K | 1249.3 kPa
355.64 K | 1320.5 kPa
356.7 K | 1352.6 kPa
359.21 K | 1431.4 kPa
361.34 K | 1500.8 kPa
363.46 K | 1572.3 kPa
365.6 K | 1647.1 kPa
367.45 K | 1714.4 kPa
369.49 K | 1790.5 kPa
371.35 K | 1862.2 kPa
372.12 K | 1892.8 kPa
373.44 K | 1945.6 kPa
373.47 K | 1946.8 kPa
374.62 K | 1994.1 kPa
375.47 K | 2029.4 kPa
377.6 K | 2120.2 kPa
378.14 K | 2144.1 kPa
379.74 K | 2214.5 kPa
381.83 K | 2310.2 kPa
383.87 K | 2406.7 kPa
385.8 K | 2500.8 kPa
387.8 K | 2601.6 kPa
390.19 K | 2726.9 kPa
392.05 K | 2828.1 kPa
393.47 K | 2907.6 kPa
393.73 K | 2922.2 kPa
394.04 K | 2940 kPa
396.05 K | 3057 kPa
396.52 K | 3085.8 kPa
397.97 K | 3174.2 kPa

FC(F)CC(F)(F)F [1,1,1,3,3-pentafluoropropane]
Details | vapor or sublimation pressure [kPa]
235.65 K | 6.9
237.61 K | 7.83
239.61 K | 8.89
241.65 K | 10.09
243.57 K | 11.33
245.57 K | 12.77
247.67 K | 14.43
249.72 K | 16.22
251.16 K | 17.6
251.64 K | 18.05
252.68 K | 19.12
253.7 K | 20.23
255.59 K | 22.39
256.66 K | 23.69
257.56 K | 24.84
259.6 K | 27.62
261.27 K | 30.07
261.47 K | 30.38
261.62 K | 30.62
263.88 K | 34.3
265.69 K | 37.48
266.4 K | 38.77
267.21 K | 40.32
267.51 K | 40.9
267.65 K | 41.19
269.61 K | 45.21
271.59 K | 49.58
271.73 K | 49.9
272.61 K | 51.93
273.73 K | 54.67
275.73 K | 59.81
277.71 K | 65.28
277.74 K | 65.39
279.71 K | 71.23
279.72 K | 71.27
281.62 K | 77.24
281.74 K | 77.66
282.67 K | 80.74
283.01 K | 81.9
283.62 K | 84.01
285.6 K | 91.2
287.57 K | 98.81
287.58 K | 98.82
287.63 K | 99.06
289.64 K | 107.32
291.68 K | 116.25
292.11 K | 118.22
292.56 K | 120.29
293.02 K | 122.46
294.05 K | 127.38
296.05 K | 137.42
297.68 K | 146.08
298.07 K | 148.16
299.99 K | 158.97
302.22 K | 172.36
302.61 K | 174.75
302.82 K | 176.04
306.06 K | 197.31
308.24 K | 212.7
312.05 K | 241.93
314.67 K | 263.68
316.8 K | 282.34
318.62 K | 299.22
321.02 K | 322.69
324.94 K | 363.8
326.92 K | 386.02
328.21 K | 401
328.88 K | 409.17
332.34 K | 452.27
334.54 K | 481.58
335.06 K | 488.66
337.05 K | 516.55
337.07 K | 516.91
337.71 K | 526.04
339.46 K | 552.03
340.65 K | 570.3
340.66 K | 570.45
343.11 K | 609.1
344.74 K | 636.25
345.11 K | 642.16
347.04 K | 675.54
348.61 K | 703.69
349.13 K | 713.08
349.32 K | 716.41
351.61 K | 759.56
363.48 K | 1014
365.4 K | 1060.6
368.8 K | 1147.1
371.52 K | 1219.9
373.61 K | 1278.4
374.58 K | 1306
375.9 K | 1344.6
378.5 K | 1422.7
380.59 K | 1487.9
380.96 K | 1500
383.23 K | 1573.6
386.07 K | 1669.5
388.53 K | 1757
391.15 K | 1853.4
393.55 K | 1945
394.58 K | 1985.6
396.2 K | 2050.7
398.69 K | 2153.7
401.04 K | 2254.6
402.98 K | 2340.8
404.3 K | 2400.9
404.32 K | 2401.7
405.05 K | 2435.4
407.08 K | 2531.5
408.53 K | 2601.7
409.04 K | 2626.5
409.43 K | 2646
411.13 K | 2731.4
413.25 K | 2841.1
414.11 K | 2886.6
414.65 K | 2916.1
415.27 K | 2949.2
417.28 K | 3060.7
419.31 K | 3176.2
420.09 K | 3221.7
422.02 K | 3337.1
422.45 K | 3363
424.01 K | 3459.9
424.32 K | 3479.2
424.52 K | 3491.6
426.47 K | 3617.9
427.08 K | 3658.3
